Here are results for one compound from US12565485B2, “Solid forms of 1-((S)-4-((R)-7-(6-amino-4-methyl-3-(trifluoromethyl)pyridin-2-yl)-6-chloro-8-fluoro-2-(((s)-1-methylpyrrolidin-2-yl)methoxy)quinazolin-4-yl)-3-methylpiperazin-1-yl)prop-2-en-1-one” (Genentech, Inc., priority 2022, dated 2026).

Holding throughout (type): physicochemical
Data set [1] can be described thus: Slow cooling. Conditions: Compound A, 50° C. to 5° C. at 0.1° C./min. As for the experimental part: Slow cooling Compound A. Slow cooling experiments were conducted in four solvent systems. […] The suspension was then heated to 50° C., equilibrated for about 2 hr and filtered to a new vial using a seal membrane (PTFE, pore size of 0.45 μm). Filtrates were slowly cooled down to 5° C. at a rate of 0.1° C./min. The obtained solids were kept isothermal at 5° C. before isolation for XRPD analysis.

A short description of data set [2]: Form change before and after drying (XRPD). How it is done:
The wet sample was vacuum dried at RT for 3 hrs. […] A solid was obtained with a yield of 62.2%. […] (peak temperature). Based on the integrals in NMR spectrum, the stoichiometric ratio of adipic acid:freebase was determined to be 1.06. A peak of EtOAc was observed. Around 0.07 molar EtOAc (0.8 wt %) was detected, which was consistent with TGA weight loss.
(peak), and one small endotherm at 158.8° C. […] Based on the integrals, the stoichiometric ratio of adipic acid:freebase was determined to be 1.65.
(peak temperature). Based on the integrals, the stoichiometric ratio of adipic acid:freebase was determined to be 1.06. Peak of THF was observed. Around 0.17 molar THF (1.9 wt %) was detected, which was consistent with TGA weight loss.
Compound B Form A was obtained from an acetone system and the sample was air dried at RT. […] (peak temperature) before the possible overlapped peak with peak temperature at 156.3° C. (FIG. 12). Based on the integrals, the stoichiometric ratio of fumaric acid:freebase was determined to be 1.03. A peak of acetone was observed and approximately 0.49 molar acetone (4.4 wt %) was detected. The HPLC purity of Compound B Form A was determined to be 93.56 area %. […] Around 0.39 molar acetone (3.5 wt %) was still detected. One endotherm at 58.7° C. and an overlapped peak with peak temperature at 157.1° C. were still observed on the sample obtained after heating. The first endotherm might be caused by re-adsorption of moisture. Since ˜3.5 wt % acetone was still detected from NMR, Compound B Form A is expected to be an acetone/H2O co-solvate.
Compound C Form A was obtained from EtOAc system and the sample was air dried at RT. […] HPLC purity of Compound C Form A was determined to be 95.18 area %.

Data set [3] is described as follows: Solid vapor diffusion. As to conditions: RT; for Result: Compound A. How it is done:
Solid vapor diffusion Compound A. Solid vapor diffusion experiments were conducted using 12 different solvents. […] The 20-mL vial was sealed with a cap and kept at RT allowing solvent vapor to interact with the sample.

For `C=CC(=O)N1CCN(c2nc(OC[C@@H]3CCCN3C)nc3c(F)c(-c4nc(N)cc(C)c4C(F)(F)F)c(Cl)cc23)[C@@H](C)C1` [Compound A Form A], the Result result in data set [1] (ACN), in data set [1] (Acetone), in data set [1] (IPA), in data set [1] (MEK), in data set [3] (1,4-Dioxane vapor) and in data set [3] (ACN vapor) was “Compound A Form A” each time. In addition, the Result result in data set [3] (Acetone vapor), in data set [3] (DCM vapor), in data set [3] (DMF vapor), in data set [3] (DMSO vapor), in data set [3] (EtOAc vapor) and in data set [3] (EtOH vapor) was “Compound A Form A” each time. Further, the Result entry in data set [3] (H2O vapor), in data set [3] (IPA vapor), in data set [3] (MeOH vapor) and in data set [3] (THF vapor) was “Compound A Form A” in each case. Also, the “Form change before and after drying” value in data set [2] (air dried at RT) and in data set [2] (vacuum dried at RT for 3 hrs) was “No form change was observed” throughout. In addition, the “Solid vapor diffusion result (XRPD form)” value in data set [3] (12 different solvents) was “Compound A Form A was obtained”.
